Measured values reported in patent US20240009156A1, “METHODS AND FORMULATIONS FOR PRENATAL TREATMENT OF ALLAN-HERNDON-DUDLEY SYNDROME” (PriZm, LLC, priority 2022, published 2024).

How the values were obtained:
[1] = human, in vivo; cited from earlier work
wild type mice = conditions: T3-treated wild type mice; cited from earlier work
[2] = tested on: MCT8-mutant (mct82/2) larvae; conditions: cited from earlier work
[3] = T3 and T4 concentration in humans with MCT8 deficiency; assay type: in vivo
[4] = tested on: MCT8 mutant (mct8−/−) zebrafish; conditions: cited from earlier work
[5] = Effect of DITPA on removal of gastrostomy tube (G-tube); assay type: in vivo, human; conditions: one child who started DITPA while having a G-tube
[6] = tested on: MCT8-deficient (knockout) mice (Mct8KO); conditions: cited from earlier work

For `O=C(O)Cc1cc(I)c(Oc2ccc(O)c(I)c2)c(I)c1` [TRIAC, triiodothyroacetic acid], the “effects in pediatric subjects” value [1] is listed as “analog Triac has also been studied in pediatric subjects with positive”.
In the case of `N[C@@H](Cc1cc(I)c(Oc2ccc(O)c(I)c2)c(I)c1)C(=O)O` [T3, triiodothyronine], the “TEE (total energy expenditure)” value (wild type mice) is given as “mice showed increased food intake and TEE, similar to MCT8KO mice” and the food intake (wild type mice) is given as “mice showed increased food intake and TEE, similar to MCT8KO mice”.
In the case of `O=C(O)CCc1cc(I)c(Oc2ccc(O)cc2)c(I)c1` [DITPA, 3,5-diiodothyropropionic acid], the “myelin and axon outgrowth deficiencies” value [2] is listed as “restored the myelin and axon outgrowth deficiencies in mct82/2 larvae”, the T3 concentration [3] is listed as “reduction” and the T4 concentration [3] is listed as “increase”. For the same compound, the “hypomyelination in the CNS” value [4] was “TH analogs partially rescued the hypomyelination in the CNS of MCT8”, the G-tube [5] was “removed” and the body weight [5] was “gained weight”. The TH deficit [6] was “corrects the TH deficit”, the “analysis of TH target genes: thyrotoxic state in the liver” value [6] was “target genes revealed amelioration of the thyrotoxic state in the liver” and the “measurements and other parameters of TH action” value [6] was “SRW101 normalized all measurements and other parameters of TH”. The “thyrotoxic effect in the liver” value [6] was “without causing”.
